Key:
[1] = target: T1, human PD-1/PD-L1 binding (Homo sapiens, UniProt Q9NZQ7); test: Inhibition of human PD-1/PD-L1 binding (TR-FRET/HTRF); settings: TR-FRET, PD-L1-His and PD-1-Fc; read-out: PD-1/PD-L1 binding IC50
T1 construct: PD-L1-His protein (19 to 238 amino acids) (Abcam #ab167713); purchased Abcam (PD-L1-His); R&D (PD-1-Fc) ab167713; 1086-PD
Text: Test Embodiment 1: Test of Inhibitory Effect of the Compounds of the Present Disclosure on Human PD-1/PD-L1 Binding
Experimental purpose: The purpose of this test embodiment was to measure the inhibitory activity of the compounds on human PD-1/PD-L1 binding.
Experimental reagents: Binding Domain diluent buffer was purchased from Cisbio Company, Cat. No.: 62DLBDDF; MAb Anti-6HIS Eu cryptate Gold was purchased from Cisbio Company with the article number of 61HI2KLA; PAb Anti Human IgG-XL665 was purchased from Cisbio Company with the article number of 61HFCXLB; PD-L1-His protein was purchased from Abcam Company with the article number of ab167713; PD-1-Fc protein was purchased from R&D Company with the article number of 1086-PD; Detection buffer was purchased from Cisbio Company with the article number of 62SDBRDD; 384-well plate was purchased from PerkinElmer Company with the article number of 6007290.
Experimental method: In order to test the inhibitory activity of the compounds on human PD-1/PD-L1 binding, the method of time-resolved fluorescence resonance energy transfer (TR-FRET) was used in this experiment to test the inhibition of the compounds on human PD-1/PD-L1 binding, and the half inhibitory concentration IC50 of inhibitory activity of the compounds on human PD-1/PD-L1 binding was obtained.
This experiment was performed in a 384-well plate with a total reaction volume of 20 μL. Compounds were diluted to different concentrations (10 μM or 1 μM starting, 3-fold dilution, 11 doses) using assay buffer Binding Domain diluent buffer (Cisbio #62DLBDDF), then PD-L1-His protein (19 to 238 amino acids) (Abcam #ab167713) was diluted to 10 nM with assay buffer, and PD-1-Fc protein (25 to 167 amino acids) (R&D #1086-PD) was diluted to 20 nM with assay buffer; the compound, PD-L1 protein and PD-1 protein were added to a 384-well plate respectively, and the total volume was 10 μL, then centrifuged at 1000 rpm for 1 minute to mix well, and incubated for 60 minutes at room temperature. Then 10 μL of a mixed solution of MAb Anti-6HIS Eu cryptate Gold (Cisbio #61HI2KLA) and PAb Anti Human IgG-XL665 (Cisbio #61HFCXLB) diluted by HTRF Detection buffer was added to each well, and centrifuged at 1000 rpm for 1 minute to mix well. The reaction was carried out at room temperature for 3 hours or at 4° C. overnight, then a microplate reader (BioTek Synergy H1) was put into for reading; the excitation wavelength was 340 nm, and the emission wavelengths were 620 nm and 665 nm.
The ratio of fluorescence readings at 620 nm and 665 nm (665 nm/620 nm) was calculated, and the inhibition rate was calculated.

[2] = target: T2, PD-L1 protein on the surface of MC38-hPDL1 tumor cells (Homo sapiens, UniProt Q9NZQ7); test: Induction of endocytosis of PD-L1 on the surface of tumor cells (flow cytometry); assay type: cell-based; settings: 16 hours incubation; for Emax: MC38-hPDL1 cells, read-out: MC38 maximum endocytosis rate; for IC50: inducing endocytosis of PD-L1, MC38-hPDL1 cells, read-out: MC38 IC50
T2 construct: expressed in transfected cells; host or cells: MC38-hPDL1 (mouse colon cancer cells)
Text: Test Embodiment 2. Test of the Activity of Compounds of the Present Disclosure on Inducing the Endocytosis of PD-L1 Protein on the Surface of Tumor Cells
Experimental purpose: The purpose of this test embodiment was to test the activity of the compound on inducing the endocytosis of PD-L1 on the surface of tumor cells.
Experimental method: In order to test the activity of the compound on inducing the endocytosis of PD-L1, in this experiment, the activity of the compound on inducing the endocytosis of PD-L1 was tested by detecting the change degree of PD-L1 on the tumor cell surface with fluorescently labeled anti-PD-L1 antibody, and the IC50 of activity of the compound on inducing the endocytosis of PD-L1 was obtained.
The mouse colon cancer cells MC38-hPDL1 with high expression of hPD-L1 were collected, and adjusted to a suitable density and plated in a 24-well plate, and placed in a 37° C., 5% CO2 incubator to adhere overnight. Compounds were prepared into different concentrations by medium and added to a 24-well plate, and a vehicle control well was set up. After the cells were incubated in a 37° C., 5% CO2 incubator for 16 hours, the 24-well plate was taken out, and MC38-hPDL1 cells with different treatments in the plate were collected. After the cells were washed once with FACS buffer (PBS containing 0.5% BSA), and the cells were prepared to an appropriate density with FACS buffer. PE Mouse Anti-Human CD274 antibody (BD Pharmingen #557924) was added, and the cells were shaken at room temperature and incubated for 30 minutes without light, then the cells were washed twice with FACS buffer, resuspended in 100 μL of PBS, and a flow cytometer was used to detect the fluorescent signal on the cell surface, and the isotype control was set as a negative control.
The endocytosis rate of the compounds was calculated from the fluorescence signals of different treatment groups, and the compound concentration and endocytosis rate were fitted by nonlinear regression using GraphPad Prism software, and IC50 values were obtained, as shown in Table 2.

T2 sequence (Q9NZQ7 19-290): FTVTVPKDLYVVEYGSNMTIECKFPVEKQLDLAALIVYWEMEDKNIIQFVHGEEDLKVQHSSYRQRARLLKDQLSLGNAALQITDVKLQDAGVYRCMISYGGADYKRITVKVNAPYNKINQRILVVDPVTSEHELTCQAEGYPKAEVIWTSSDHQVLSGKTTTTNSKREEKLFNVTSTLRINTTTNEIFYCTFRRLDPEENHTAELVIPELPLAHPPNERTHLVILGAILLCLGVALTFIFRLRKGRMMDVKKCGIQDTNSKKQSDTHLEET
T1 sequence (Q9NZQ7 19-238): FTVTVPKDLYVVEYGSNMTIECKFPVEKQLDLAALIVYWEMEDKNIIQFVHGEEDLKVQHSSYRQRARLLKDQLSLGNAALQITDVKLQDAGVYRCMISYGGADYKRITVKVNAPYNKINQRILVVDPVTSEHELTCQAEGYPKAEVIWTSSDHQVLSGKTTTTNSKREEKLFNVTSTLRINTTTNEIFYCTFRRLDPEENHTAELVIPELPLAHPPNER

SMILES	IC50 [1] [nM]	Emax [2] [%]	IC50 [2] [nM]
COc1cc(C(=O)Nc2cccc(-c3cccc(NC(=O)c4nc5c(n4C)CCN(C)C5)c3Cl)c2C)ncc1CNc1cc(C)ccn1 [Embodiment 11, N-(2-Chloro-3′-(4-methoxy-5-(((4-methylpyridin-2-yl)amino)methyl)picolinamido)-2′-methyl-[1,1′-biphenyl]-3-yl)-1,5-dimethyl-4,5,6,7-tetrahydro-1H-imidazo[4,5-c]pyridine-2-carboxamide]	5.1	85	8.1
COc1cc(C(=O)Nc2cccc(-c3cccc(NC(=O)c4nc5c(n4C)CCN(C)C5)c3Cl)c2C)ncc1CNCCF [Embodiment 18, N-(2-Chloro-3′-(5-(((2-fluoroethyl)amino)methyl)-4-methoxypicolinamido)-2′-methyl-[1,1′-biphenyl]-3-yl)-1,5-dimethyl-4,5,6,7-tetrahydro-1H-imidazo[4,5-c]pyridine-2-carboxamide]	2.4	91	1.5
COc1cc(NCc2cnc(C(=O)Nc3cccc(-c4cccc(NC(=O)c5nc6c(n5C)CCN(C)C6)c4Cl)c3Cl)cc2OC)ccn1 [Embodiment 2, N-(2,2′-Dichloro-3′-(4-methoxy-5-(((2-methoxypyridin-4-yl)amino)methyl)picolinamido)-[1,1′-biphenyl]-3-yl)-1,5-dimethyl-4,5,6,7-tetrahydro-1H-imidazo[4,5-c]pyridine-2-carboxamide]	5	89	4.6
COc1cc(C(=O)Nc2cccc(-c3cccc(NC(=O)c4nc5c(n4C)CCN(C)C5)c3Cl)c2C)ncc1CO [Embodiment 49, N-(2-Chloro-3′-(5-(2-hydroxymethyl)-4-methoxypicolinamido)-2′-methyl-[1,1′-biphenyl]-3-yl)-1,5-dimethyl-4,5,6,7-tetrahydro-1H-imidazo[4,5-c]pyridine-2-carboxamide]	5.1	93	10.7
COc1cc(C(=O)Nc2cccc(-c3cccc(NC(=O)c4nc5c(n4C)CCN(C)C5)c3Cl)c2C)ncc1CN1CC(F)(CO)COC1=O (centres unmarked) [Embodiment 22, N-(2-Chloro-3′-(5-((5-fluoro-5-(hydroxymethyl)-2-carbonyl-1,3-oxazinan-3-yl)methyl)-4-methoxypicolinamido)-2′-methyl-[1,1′-biphenyl]-3-yl)-1,5-dimethyl-4,5,6,7-tetrahydro-1H-imidazo[4,5-c]pyridine-2-carboxamide]	5.9	92	14.5
Cc1c(NC(=O)c2cc(C3CC3)c(CO)cn2)cccc1-c1cccc(NC(=O)c2nc3c(n2C)CCN(C)C3)c1Cl [Embodiment 51, N-(2-Chloro-3′-(4-cyclopropyl-5-(hydroxymethyl)picolinamido)-2′-methyl-[1,1′-biphenyl]-3-yl)-1,5-dimethyl-4,5,6,7-tetrahydro-1H-imidazo[4,5-c]pyridine-2-carboxamide]	5.5	91	11.8
COc1cc(-c2cccc(-c3cccc(NC(=O)c4nc5c(n4C)CCN(C)C5)c3Cl)c2Cl)ncc1CNC[C@@H]1CCC(=O)N1 [Embodiment 56, (S)—N-(2,2′-Dichloro-3′-(4-methoxy-5-((((5-carbonylpyrrolidin-2-yl)methyl)amino)methyl)pyridin-2-yl)-[1,1′-biphenyl]-3-yl)-1,5-dimethyl-4,5,6,7-tetrahydro-1H-imidazo[4,5-c]pyridine-2-carboxamide]	2.1	91	12.2
COc1cc(C(=O)Nc2cccc(-c3cccc(NC(=O)c4nc5c(n4C)CCN(C)C5)c3Cl)c2C)ncc1CNC[C@@H]1CCC(=O)N1 [Embodiment 39, (S)—N-(2-Chloro-3′-(4-methoxy-5-((((5-carbonylpyrrolidin-2-yl)methyl)amino)methyl)picolinamido)-2′-methyl-[1,1′-biphenyl]-3-yl)-1,5-dimethyl-4,5,6,7-tetrahydro-1H-imidazo[4,5-c]pyridine-2-carboxamide]	5	97	1.9
COc1nc(-c2cccc(-c3cccc(NC(=O)c4nc5c(n4C)CCN(C)C5)c3Cl)c2Cl)ccc1CN1CC2CC(C1)N2C(=O)CC#N [Embodiment 208, N-(2,2′-Dichloro-3′-(5-((6-(2-cyanoacetyl)-3,6-diazabicyclo[3.1.1]heptan-3-yl)methyl)-6-methoxypyridin-2-yl)-[1,1′-biphenyl]-3-yl)-1,5-dimethyl-4,5,6,7-tetrahydro-1H-imidazo[4,5-c]pyridine-2-carboxamide]	9	81	

Continued, values first:

IC50 [1] [nM]	Emax [2] [%]	IC50 [2] [nM]	SMILES
4.4	91	3.9	COc1cc(C(=O)Nc2cccc(-c3cccc(NC(=O)c4nc5c(n4C)CCN(C)C5)c3Cl)c2C)ncc1CNC1(C)COC1 [Embodiment 99, N-(2-Chloro-3′-(4-methoxy-5-(((3-methyloxetan-3-yl)amino)methyl)picolinamido)-2′-methyl-[1,1′-biphenyl]-3-yl)-1,5-dimethyl-4,5,6,7-tetrahydro-1H-imidazo[4,5-c]pyridine-2-carboxamide]
4.7	85	9.6	COc1cc(-c2cccc(-c3cccc(NC(=O)c4nc5c(n4C)CCN(C)C5)c3Cl)c2C)ncc1CNC1CCOCC1 [Embodiment 59, N-(2-Chloro-3′-(4-methoxy-5-(((tetrahydro-2H-pyran-4-yl)amino)methyl)pyridin-2-yl)-2′-methyl-[1,1′-biphenyl]-3-yl)-1,5-dimethyl-4,5,6,7-tetrahydro-1H-imidazo[4,5-c]pyridine-2-carboxamide]
2.4	86	5	COc1cc(NCc2cnc(C(=O)Nc3cccc(-c4cccc(NC(=O)c5nc6c(n5C)CCNC6)c4Cl)c3Cl)cc2OC)ccn1 [Embodiment 81, N-(2,2′-Dichloro-3′-(4-methoxy-5-(((2-methoxypyridin-4-yl)amino)methyl)picolinamido)-[1,1′-biphenyl]-3-yl)-1-methyl-4,5,6,7-tetrahydro-1H-imidazo[4,5-c]pyridine-2-carboxamide]
3.9	85	12	CCN1CCc2c(nc(C(=O)Nc3cccc(-c4cccc(NC(=O)c5cc(OC)c(CNc6ccnc(OC)c6)cn5)c4Cl)c3Cl)n2C)C1 [Embodiment 82, N-(2,2′-Dichloro-3′-(4-methoxy-5-(((2-methoxypyridin-4-yl)amino)methyl)picolinamido)-[1,1′-biphenyl]-3-yl)-5-ethyl-1-methyl-4,5,6,7-tetrahydro-1H-imidazo[4,5-c]pyridine-2-carboxamide]

— US20230105212A1, “BIPHENYL DERIVATIVE INHIBITOR, PREPARATION METHOD THEREFOR AND USE THEREOF” (SHANGHAI HANSOH BIOMEDICAL CO., LTD., priority 2020, published 2023)
